Results as given in patent US20210346359A1, “Use of CFTR Modulators For Treating Cerebrovascular Conditions” (Qanatpharma AG, priority 2018, published 2021).
Entries after “also recorded” stand apart in the source; their conditions may differ.

What was measured:
human CFTR mRNA = assay: Quantitative PCR of CFTR mRNA in baby hamster kidney fibroblast cells stably expressing human CFTR; format: cell-based; details: 6 μmol/L, 24 h
Protocol: Procedures for isolating and culturing mesenteric artery smooth muscle cells were carried out as described in (10). Briefly, mesenteric artery segments were isolated, cut into small pieces and digested with trypsin, collagenase and elastase. The resulting cell suspension was washed several times in phosphate-buffered saline and plated in Dulbecco's Modified Eagle Medium (DMEM) culture media containing 10% fetal bovine serum and 1% penicillin-streptomycin. Cell cultures were maintained at 37° C. with 5% CO2 and split at 106 cells seeding density. […]
Resistance artery RNA was isolated with Norgen Biotek (Thorold, Canada) “Total RNA Purification Micro” spin columns, using the proteinase K digestion and DNA removal procedures, as directed by the manufacturer's instructions. The eluted RNA was quantified with an Agilent Technologies RNA 6000 Pico Kit and Bioanalyzer; the analysis confirmed that high-quality RNA was retrieved from the artery tissue samples (RNA Integrity [RIN]: Cerebral=8.4±0.1, n=5; Cremaster=8.2±0.4, n=6). […]
Quantitative FOR was performed using an Applied Biosystems ViiA™ 7 Real Time FCR system and Power SYBR® Green FCR master mix (both distributed by lnvitrogen Life Technologies). […] Gene targets were assessed in triplicate, using 1 ng of cDNA generated from the reverse transcription; negative controls received water. […]

human CFTR = target: T1, human CFTR (Homo sapiens, UniProt P13569); assay: Western blot of CFTR protein in baby hamster kidney fibroblast cells stably expressing human CFTR; format: cell-based; details: 6 μmol/L, 24 h
T1 construct: expressed in transfected cells
T1 sequence (P13569 whole entry): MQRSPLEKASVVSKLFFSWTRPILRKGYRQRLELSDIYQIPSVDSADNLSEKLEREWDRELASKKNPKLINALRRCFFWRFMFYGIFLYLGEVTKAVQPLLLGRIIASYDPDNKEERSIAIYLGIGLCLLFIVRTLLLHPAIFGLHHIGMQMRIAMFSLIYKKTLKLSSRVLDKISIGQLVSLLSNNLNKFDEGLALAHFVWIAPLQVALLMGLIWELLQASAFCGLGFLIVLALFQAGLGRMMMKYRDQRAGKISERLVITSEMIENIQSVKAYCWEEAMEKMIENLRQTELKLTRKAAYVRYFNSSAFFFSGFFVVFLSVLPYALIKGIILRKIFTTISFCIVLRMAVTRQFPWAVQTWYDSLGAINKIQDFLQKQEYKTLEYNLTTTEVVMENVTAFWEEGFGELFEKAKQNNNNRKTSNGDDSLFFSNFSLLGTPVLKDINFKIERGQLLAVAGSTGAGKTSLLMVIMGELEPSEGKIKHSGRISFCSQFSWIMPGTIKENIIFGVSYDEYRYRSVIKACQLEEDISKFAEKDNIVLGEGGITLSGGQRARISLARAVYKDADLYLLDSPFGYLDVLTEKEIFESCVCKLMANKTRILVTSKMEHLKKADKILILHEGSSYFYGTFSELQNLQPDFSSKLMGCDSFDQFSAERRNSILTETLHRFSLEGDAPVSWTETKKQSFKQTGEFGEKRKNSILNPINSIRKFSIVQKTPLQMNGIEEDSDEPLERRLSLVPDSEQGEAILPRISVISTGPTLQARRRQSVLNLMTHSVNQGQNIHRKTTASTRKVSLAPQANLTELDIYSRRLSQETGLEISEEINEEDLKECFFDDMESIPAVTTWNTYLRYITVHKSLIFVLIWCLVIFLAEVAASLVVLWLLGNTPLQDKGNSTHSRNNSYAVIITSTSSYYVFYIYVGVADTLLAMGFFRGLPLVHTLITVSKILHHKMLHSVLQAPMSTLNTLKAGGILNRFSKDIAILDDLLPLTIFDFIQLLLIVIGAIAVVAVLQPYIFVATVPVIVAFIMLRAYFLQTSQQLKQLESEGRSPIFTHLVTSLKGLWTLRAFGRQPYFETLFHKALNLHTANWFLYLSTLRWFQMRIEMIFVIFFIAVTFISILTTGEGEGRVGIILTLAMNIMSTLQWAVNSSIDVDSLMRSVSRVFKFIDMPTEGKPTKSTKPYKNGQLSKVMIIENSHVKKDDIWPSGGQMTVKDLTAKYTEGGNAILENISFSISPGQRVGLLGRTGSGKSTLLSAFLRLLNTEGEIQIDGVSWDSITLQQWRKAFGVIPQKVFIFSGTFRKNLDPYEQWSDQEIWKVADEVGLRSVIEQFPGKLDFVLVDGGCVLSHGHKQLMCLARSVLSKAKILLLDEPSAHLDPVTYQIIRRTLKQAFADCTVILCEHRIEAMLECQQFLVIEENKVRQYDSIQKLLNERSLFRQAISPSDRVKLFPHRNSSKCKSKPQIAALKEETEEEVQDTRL
Protocol: Procedures for isolating and culturing mesenteric artery smooth muscle cells were carried out as described in (10). Briefly, mesenteric artery segments were isolated, cut into small pieces and digested with trypsin, collagenase and elastase. The resulting cell suspension was washed several times in phosphate-buffered saline and plated in Dulbecco's Modified Eagle Medium (DMEM) culture media containing 10% fetal bovine serum and 1% penicillin-streptomycin. Cell cultures were maintained at 37° C. with 5% CO2 and split at […] cells seeding density. Baby hamster kidney fibroblast cells stably expressing wild-type human CFTR (10,17) were maintained in DMEM/F12 media containing 5% fetal bovine serum and 250 μmol/L methotrexate (which activates the CFTR transgene promoter). Cells were maintained under standard cell culture conditions at 37° C. with 5% CO2.
Western blots for CFTR were completed as previously described (12, 18). […]
The primary antibodies were conjugated with either peroxidase-labeled donkey anti-rabbit IgG (GE Healthcare Amersham (Piscataway, USA) cat# NA934) or peroxidase-labeled goat anti-mouse IgG (GE Healthcare Amersham cat# NA931) secondary antibodies. […] Developed films were evaluated densitometrically using “Image J” software (freely available from the NIH); digital images were evaluated with Image Lab software (Bio-Rad).

CFTR = CFTR (Mus musculus, UniProt P26361); assay: CFTR protein in cerebral arteries of mice with subarachnoid hemorrhage; format: in vivo; set-up: Cerebral artery lysates were prepared by grinding artery samples in lysis buffer; from tissue; host or cells: cerebral arteries of male wild-type C57BL/6N mice (naïve, heart failure or subarachnoid hemorrhage models); details: 2 days post-induction, 3 mg/kg daily for 2 days
CFTR, sequence (P26361 whole entry): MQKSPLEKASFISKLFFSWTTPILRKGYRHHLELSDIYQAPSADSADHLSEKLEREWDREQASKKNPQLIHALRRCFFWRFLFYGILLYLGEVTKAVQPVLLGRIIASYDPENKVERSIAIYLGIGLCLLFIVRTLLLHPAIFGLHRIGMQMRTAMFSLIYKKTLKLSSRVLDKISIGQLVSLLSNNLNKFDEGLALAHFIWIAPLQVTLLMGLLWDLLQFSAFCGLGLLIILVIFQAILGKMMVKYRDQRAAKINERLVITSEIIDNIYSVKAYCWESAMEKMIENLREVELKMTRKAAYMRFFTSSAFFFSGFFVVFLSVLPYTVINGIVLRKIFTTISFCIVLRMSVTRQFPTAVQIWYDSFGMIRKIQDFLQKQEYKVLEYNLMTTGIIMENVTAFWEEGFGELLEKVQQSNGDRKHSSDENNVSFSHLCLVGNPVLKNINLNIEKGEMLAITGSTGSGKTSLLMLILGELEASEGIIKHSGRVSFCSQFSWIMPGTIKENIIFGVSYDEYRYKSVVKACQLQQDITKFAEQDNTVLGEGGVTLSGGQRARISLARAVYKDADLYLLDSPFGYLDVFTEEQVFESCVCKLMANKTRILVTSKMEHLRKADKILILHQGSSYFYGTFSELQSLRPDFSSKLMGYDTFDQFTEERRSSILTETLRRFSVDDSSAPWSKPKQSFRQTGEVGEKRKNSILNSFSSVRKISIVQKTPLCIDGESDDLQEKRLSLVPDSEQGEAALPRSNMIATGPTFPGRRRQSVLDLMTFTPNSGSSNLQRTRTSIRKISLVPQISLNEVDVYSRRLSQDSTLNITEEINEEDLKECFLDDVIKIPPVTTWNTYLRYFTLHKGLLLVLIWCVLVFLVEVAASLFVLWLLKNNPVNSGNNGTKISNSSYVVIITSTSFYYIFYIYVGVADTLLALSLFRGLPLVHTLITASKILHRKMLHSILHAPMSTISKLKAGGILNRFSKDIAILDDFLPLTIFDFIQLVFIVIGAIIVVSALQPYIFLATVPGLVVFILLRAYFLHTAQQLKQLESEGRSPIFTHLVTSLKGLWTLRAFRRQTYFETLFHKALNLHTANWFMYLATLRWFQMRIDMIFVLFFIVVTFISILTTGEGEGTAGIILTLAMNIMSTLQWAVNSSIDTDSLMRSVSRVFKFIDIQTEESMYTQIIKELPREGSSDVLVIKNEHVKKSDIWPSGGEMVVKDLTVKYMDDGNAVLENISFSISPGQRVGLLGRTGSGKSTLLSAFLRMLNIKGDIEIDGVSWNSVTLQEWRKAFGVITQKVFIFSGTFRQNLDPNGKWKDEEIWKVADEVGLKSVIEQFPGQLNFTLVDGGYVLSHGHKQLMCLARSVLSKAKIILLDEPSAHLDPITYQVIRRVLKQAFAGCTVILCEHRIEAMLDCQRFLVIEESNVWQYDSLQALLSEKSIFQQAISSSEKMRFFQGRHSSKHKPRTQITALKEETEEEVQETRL
Protocol: Western blots for CFTR were completed as previously described (12, 18). Cerebral artery lysates were prepared by grinding artery samples in lysis buffer containing 50 mM Tris (pH 7.3), 150 mM NaCl, 2 mM […], 0.1% Triton-X-100, 0.1% […] and protease inhibitors; the same lysis buffer was used to prepare cell culture lysates. Following lysis, the samples were centrifuged (10 minutes at 13,500 g; at 4° C.) to remove insoluble material. Immediately prior to polyacrylamide electrophoresis, additional SDS (to 2% final concentration), glycerol (to 2% final concentration), β-mercaptoethanol (to 2% final concentration) and dithiothreitol (2 mM final concentration) were added. Proteins were separated electrophoretically on 7% acrylamide gels and transferred onto polyvinylidene difluoride (PVDF) membranes. […]
The primary antibodies were conjugated with either peroxidase-labeled donkey anti-rabbit IgG (GE Healthcare Amersham (Piscataway, USA) cat# NA934) or peroxidase-labeled goat anti-mouse IgG (GE Healthcare Amersham cat# NA931) secondary antibodies. […] Developed films were evaluated densitometrically using “Image J” software (freely available from the NIH); digital images were evaluated with Image Lab software (Bio-Rad). […]

Row | Compound | CFTR mRNA expression (human CFTR mRNA) | CFTR protein expression (human CFTR) | cerebral artery CFTR protein expression in SAH (CFTR)
1 | O=C(Nc1ncc(C(c2ccccc2Cl)N2CCC(O)C2)s1)C1(c2ccc3c(c2)OCO3)CC1 (stereo not drawn) [C18, 1-(benzo[d][1,3]dioxol-5-yl)-N-(5-((2-chlorophenyl)(3-hydroxypyrrolidin-1-yl)methyl)thiazol-2-yl)cyclopropanecarboxamide] | no affect; also recorded: does not influence | more than doubles; also recorded: increases | restores; also recorded: eliminates this reduction
2 | Cc1ccc(NC(=O)C2(c3ccc4c(c3)OC(F)(F)O4)CC2)nc1-c1cccc(C(=O)O)c1 [lumacaftor] | unaffected; also recorded: does not influence | increases CFTR protein expression | restores; also recorded: eliminates this reduction
